Measured values reported in US4032625A, “Bone-seeking technetium-99m complex” (priority 1975, dated 1977).
Where two headings read alike, the source gives them in different places.

Conditions: 2 Hrs

For “99m technetium-tin-1-amino-ethane-1,1-diphosphonate complex [^99m Tc-Sn-AEDP]”, the “Ratio of 99mTc complex/85Sr: Ave Bone” value (0.01 mg/kg) was 0.735, the “Ratio of 99mTc complex/85Sr: Blood” value (0.01 mg/kg) was 0.406 and the “Ratio of 99mTc complex/85Sr: Femur” value (0.01 mg/kg) was 0.720. For the same substance, the “Ratio of 99mTc complex/85Sr: Kidneys” value (0.01 mg/kg) was 4.99, the “Ratio of 99mTc complex/85Sr: Liver” value (0.01 mg/kg) was 3.00 and the “Ratio of 99mTc complex/85Sr: Marrow” value (0.01 mg/kg) was 1.27. The “Ratio of 99mTc complex/85Sr: Muscle” value (0.01 mg/kg) was 0.338, the “Ratio of 99mTc complex/85Sr: Pelvis” value (0.01 mg/kg) was 0.794 and the “Ratio of 99mTc complex/85Sr: Spine” value (0.01 mg/kg) was 0.689. The “Ratio of 99mTc complex/85Sr: Tibia” value (0.01 mg/kg) was 0.710, the “Tc/Sr (last line of distribution table)” value (0.01 mg/kg) was 0.736 and the “% Dose in Whole Organ: Blood” value (0.01 mg/kg AEDP) was 1.18 % Dose. For the same substance, the “% Dose in Whole Organ: Kidneys” value (0.01 mg/kg AEDP) was 1.59 % Dose, the “% Dose in Whole Organ: Liver” value (0.01 mg/kg AEDP) was 1.69 % Dose and the “% Dose in Whole Organ: Marrow” value (0.01 mg/kg AEDP) was 0.657 % Dose. For the same substance, the “% Dose in Whole Organ: Muscle” value (0.01 mg/kg AEDP) was 0.988 % Dose, the “% Dose in Whole Organ: W. Femur” value (0.01 mg/kg AEDP) was 2.34 % Dose and the “% Dose in Whole Organ: W. Tibia” value (0.01 mg/kg AEDP) was 1.96 % Dose. The “% Dose/1% Body weight: Blood” value (0.01 mg/kg AEDP) was 0.168 % Dose/1% Body weight, the “% Dose/1% Body weight: Bone Ave” value (0.01 mg/kg AEDP) was 7.60 % Dose/1% Body weight and the “% Dose/1% Body weight: Femur” value (0.01 mg/kg AEDP) was 7.54 % Dose/1% Body weight. The “% Dose/1% Body weight: Kidneys” value (0.01 mg/kg AEDP) was 2.72 % Dose/1% Body weight, the “% Dose/1% Body weight: Liver” value (0.01 mg/kg AEDP) was 0.617 % Dose/1% Body weight and the “% Dose/1% Body weight: Marrow” value (0.01 mg/kg AEDP) was 0.300 % Dose/1% Body weight. For the same substance, the “% Dose/1% Body weight: Muscle” value (0.01 mg/kg AEDP) was 0.037 % Dose/1% Body weight, the “% Dose/1% Body weight: Pelvis” value (0.01 mg/kg AEDP) was 8.53 % Dose/1% Body weight and the “% Dose/1% Body weight: Spine” value (0.01 mg/kg AEDP) was 6.20 % Dose/1% Body weight. For the same substance, the “% Dose/1% Body weight: Tibia” value (0.01 mg/kg AEDP) was 8.13 % Dose/1% Body weight, the “% Dose: Urine” value (0.01 mg/kg AEDP) was 48.39 % Dose and the “Ratio of 99mTc complex/85Sr: Ave Bone” value (0.05 mg/kg) was 0.683. For the same substance, the “Ratio of 99mTc complex/85Sr: Blood” value (0.05 mg/kg) was 0.409, the “Ratio of 99mTc complex/85Sr: Femur” value (0.05 mg/kg) was 0.687 and the “Ratio of 99mTc complex/85Sr: Kidneys” value (0.05 mg/kg) was 3.30. The “Ratio of 99mTc complex/85Sr: Liver” value (0.05 mg/kg) was 1.32, the “Ratio of 99mTc complex/85Sr: Marrow” value (0.05 mg/kg) was 1.18 and the “Ratio of 99mTc complex/85Sr: Muscle” value (0.05 mg/kg) was 0.236. For the same substance, the “Ratio of 99mTc complex/85Sr: Pelvis” value (0.05 mg/kg) was 0.684, the “Ratio of 99mTc complex/85Sr: Spine” value (0.05 mg/kg) was 0.675 and the “Ratio of 99mTc complex/85Sr: Tibia” value (0.05 mg/kg) was 0.681. For the same substance, the “Tc/Sr (last line of distribution table)” value (0.05 mg/kg) was 0.680, the “% Dose in Whole Organ: Blood” value (0.05 mg/kg AEDP) was 1.01 % Dose and the “% Dose in Whole Organ: Kidneys” value (0.05 mg/kg AEDP) was 1.13 % Dose. The “% Dose in Whole Organ: Liver” value (0.05 mg/kg AEDP) was 0.806 % Dose, the “% Dose in Whole Organ: Marrow” value (0.05 mg/kg AEDP) was 0.549 % Dose and the “% Dose in Whole Organ: Muscle” value (0.05 mg/kg AEDP) was 1.20 % Dose. The “% Dose in Whole Organ: W. Femur” value (0.05 mg/kg AEDP) was 2.41 % Dose, the “% Dose in Whole Organ: W. Tibia” value (0.05 mg/kg AEDP) was 2.14 % Dose and the “% Dose/1% Body weight: Blood” value (0.05 mg/kg AEDP) was 0.144 % Dose/1% Body weight. The “% Dose/1% Body weight: Bone Ave” value (0.05 mg/kg AEDP) was 8.39 % Dose/1% Body weight, the “% Dose/1% Body weight: Femur” value (0.05 mg/kg AEDP) was 8.63 % Dose/1% Body weight and the “% Dose/1% Body weight: Kidneys” value (0.05 mg/kg AEDP) was 1.83 % Dose/1% Body weight. For the same substance, the “% Dose/1% Body weight: Liver” value (0.05 mg/kg AEDP) was 0.176 % Dose/1% Body weight, the “% Dose/1% Body weight: Marrow” value (0.05 mg/kg AEDP) was 0.250 % Dose/1% Body weight and the “% Dose/1% Body weight: Muscle” value (0.05 mg/kg AEDP) was 0.028 % Dose/1% Body weight. The “% Dose/1% Body weight: Pelvis” value (0.05 mg/kg AEDP) was 7.82 % Dose/1% Body weight, the “% Dose/1% Body weight: Spine” value (0.05 mg/kg AEDP) was 7.80 % Dose/1% Body weight and the “% Dose/1% Body weight: Tibia” value (0.05 mg/kg AEDP) was 9.30 % Dose/1% Body weight. The “% Dose: Urine” value (0.05 mg/kg AEDP) was 44.21 % Dose, the “Ratio of 99mTc complex/85Sr: Ave Bone” value (0.1 mg/kg) was 0.716 and the “Ratio of 99mTc complex/85Sr: Blood” value (0.1 mg/kg) was 0.409. For the same substance, the “Ratio of 99mTc complex/85Sr: Femur” value (0.1 mg/kg) was 0.714, the “Ratio of 99mTc complex/85Sr: Kidneys” value (0.1 mg/kg) was 2.94 and the “Ratio of 99mTc complex/85Sr: Liver” value (0.1 mg/kg) was 0.490. For the same substance, the “Ratio of 99mTc complex/85Sr: Marrow” value (0.1 mg/kg) was 0.621, the “Ratio of 99mTc complex/85Sr: Muscle” value (0.1 mg/kg) was 0.205 and the “Ratio of 99mTc complex/85Sr: Pelvis” value (0.1 mg/kg) was 0.725. The “Ratio of 99mTc complex/85Sr: Spine” value (0.1 mg/kg) was 0.705, the “Ratio of 99mTc complex/85Sr: Tibia” value (0.1 mg/kg) was 0.721 and the “Tc/Sr (last line of distribution table)” value (0.1 mg/kg) was 0.717. For the same substance, the “% Dose in Whole Organ: Blood” value (0.1 mg/kg AEDP) was 0.96 % Dose, the “% Dose in Whole Organ: Kidneys” value (0.1 mg/kg AEDP) was 0.913 % Dose and the “% Dose in Whole Organ: Liver” value (0.1 mg/kg AEDP) was 0.309 % Dose. For the same substance, the “% Dose in Whole Organ: Marrow” value (0.1 mg/kg AEDP) was 0.211 % Dose, the “% Dose in Whole Organ: Muscle” value (0.1 mg/kg AEDP) was 1.46 % Dose and the “% Dose in Whole Organ: W. Femur” value (0.1 mg/kg AEDP) was 2.38 % Dose. For the same substance, the “% Dose in Whole Organ: W. Tibia” value (0.1 mg/kg AEDP) was 2.18 % Dose, the “% Dose/1% Body weight: Blood” value (0.1 mg/kg AEDP) was 0.137 % Dose/1% Body weight and the “% Dose/1% Body weight: Bone Ave” value (0.1 mg/kg AEDP) was 7.51 % Dose/1% Body weight. For the same substance, the “% Dose/1% Body weight: Femur” value (0.1 mg/kg AEDP) was 7.93 % Dose/1% Body weight, the “% Dose/1% Body weight: Kidneys” value (0.1 mg/kg AEDP) was 1.28 % Dose/1% Body weight and the “% Dose/1% Body weight: Liver” value (0.1 mg/kg AEDP) was 0.083 % Dose/1% Body weight. The “% Dose/1% Body weight: Marrow” value (0.1 mg/kg AEDP) was 0.096 % Dose/1% Body weight, the “% Dose/1% Body weight: Muscle” value (0.1 mg/kg AEDP) was 0.034 % Dose/1% Body weight and the “% Dose/1% Body weight: Pelvis” value (0.1 mg/kg AEDP) was 6.24 % Dose/1% Body weight. The “% Dose/1% Body weight: Spine” value (0.1 mg/kg AEDP) was 7.36 % Dose/1% Body weight, the “% Dose/1% Body weight: Tibia” value (0.1 mg/kg AEDP) was 8.50 % Dose/1% Body weight and the “% Dose: Urine” value (0.1 mg/kg AEDP) was 38.8 % Dose. The “Ratio of 99mTc complex/85Sr: Ave Bone” value (0.5 mg/kg) was 0.644, the “Ratio of 99mTc complex/85Sr: Blood” value (0.5 mg/kg) was 0.280 and the “Ratio of 99mTc complex/85Sr: Femur” value (0.5 mg/kg) was 0.628. The “Ratio of 99mTc complex/85Sr: Kidneys” value (0.5 mg/kg) was 2.47, the “Ratio of 99mTc complex/85Sr: Liver” value (0.5 mg/kg) was 0.459 and the “Ratio of 99mTc complex/85Sr: Marrow” value (0.5 mg/kg) was 0.500. For the same substance, the “Ratio of 99mTc complex/85Sr: Muscle” value (0.5 mg/kg) was 0.140, the “Ratio of 99mTc complex/85Sr: Pelvis” value (0.5 mg/kg) was 0.692 and the “Ratio of 99mTc complex/85Sr: Spine” value (0.5 mg/kg) was 0.614. The “Ratio of 99mTc complex/85Sr: Tibia” value (0.5 mg/kg) was 0.632, the “Tc/Sr (last line of distribution table)” value (0.5 mg/kg) was 0.645 and the “% Dose in Whole Organ: Blood” value (0.5 mg/kg AEDP) was 1.38 % Dose. The “% Dose in Whole Organ: Kidneys” value (0.5 mg/kg AEDP) was 1.11 % Dose, the “% Dose in Whole Organ: Liver” value (0.5 mg/kg AEDP) was 0.216 % Dose and the “% Dose in Whole Organ: Marrow” value (0.5 mg/kg AEDP) was 0.23 % Dose. For the same substance, the “% Dose in Whole Organ: Muscle” value (0.5 mg/kg AEDP) was 0.883 % Dose, the “% Dose in Whole Organ: W. Femur” value (0.5 mg/kg AEDP) was 1.74 % Dose and the “% Dose in Whole Organ: W. Tibia” value (0.5 mg/kg AEDP) was 1.55 % Dose. For the same substance, the “% Dose/1% Body weight: Blood” value (0.5 mg/kg AEDP) was 0.197 % Dose/1% Body weight, the “% Dose/1% Body weight: Bone Ave” value (0.5 mg/kg AEDP) was 6.96 % Dose/1% Body weight and the “% Dose/1% Body weight: Femur” value (0.5 mg/kg AEDP) was 6.59 % Dose/1% Body weight. The “% Dose/1% Body weight: Kidneys” value (0.5 mg/kg AEDP) was 2.11 % Dose/1% Body weight, the “% Dose/1% Body weight: Liver” value (0.5 mg/kg AEDP) was 0.079 % Dose/1% Body weight and the “% Dose/1% Body weight: Marrow” value (0.5 mg/kg AEDP) was 0.104 % Dose/1% Body weight. For the same substance, the “% Dose/1% Body weight: Muscle” value (0.5 mg/kg AEDP) was 0.021 % Dose/1% Body weight, the “% Dose/1% Body weight: Pelvis” value (0.5 mg/kg AEDP) was 7.93 % Dose/1% Body weight and the “% Dose/1% Body weight: Spine” value (0.5 mg/kg AEDP) was 6.05 % Dose/1% Body weight. The “% Dose/1% Body weight: Tibia” value (0.5 mg/kg AEDP) was 7.27 % Dose/1% Body weight and the “% Dose: Urine” value (0.5 mg/kg AEDP) was 48.85 % Dose.
